Data set [1] relates to uptake of noradrenaline (NA). In words: inhibition test of the uptake of noradrenaline by synaptosomes of the rat brain (hypothalamus). It is filed as biochemical. The conditions noted are these: read-out: I50 NA (hypothalamus).
Excerpt: (§1) The results are expressed by a 50% inhibitory dose (I50) which represents the dose of product, in micromoles per liter, diminishing by 50% the uptake of the neuromediator considered in the specific regions (hypothalamus, medulla+pons) where the corresponding neurons predominate.
The subject of data set [2] is uptake of serotonin (5-hydroxytryptamine, 5HT). Put plainly: inhibition test of the uptake of serotonin by synaptosomes of the rat brain (medulla + pons). It is filed as biochemical. The conditions noted are these: read-out: I50 5HT (medulla + pons).
Excerpt: as §1
The nature of data set [3]: acute toxicity in the mouse per os. Further details: species or system Charles River). The conditions noted are these: in vivo, po, male CD1 mouse, 3 days of observation. An excerpt: The acute toxicities of the compounds of formula (I) have been determined on the male mouse CD1 (Charles River) per os. The LD50 have been calculated, after 3 days of observation, by the cumulative method of J. J. Reed and H. Muench (Amer. J. Hyg. 27, 493, (1938)).

Data set [4] addresses receptors for benzodiazepines in the brain membranes (3H-diazepam binding site). In words: displacement of 3H-diazepam from its binding sites (method of H. Mohler et al.). Further details: species or system rat. An excerpt: The anxiolytic activity of the benzodiazepines is well known. The presence of specific receptors for benzodiazepines in the brain membranes of the rat has also been well established (Squires et al. Nature 266, 732, (1977)) and a good correlation exists between the degree of affinity of benzodiazepines for the receiving binding sites and the pharmacodynamic effects observed in the animal and in man.
The results of Table II have been obtained by testing the products according to the method of H. Mohler et al., Life Sciences 20, 2101 (1977).

For data set [5], the system named is ventricular arhythmias caused by aconitine. In words: antiarhythmic activity, aconitine test in rats. It is filed as in vivo. Conditions: Rattus norvegicus, iv, read-out: ED50 (i.v.). The method, then: The principle of the technique rests on the induction time of ventricular arhythmias caused by aconitine which is slowly perfused in rats. An antiarhythmic substance retards the occurrence of arhythmias and this delay is proportional to the activity of the molecule.
Groups of five male rats are used. An individual anaesthesia is realized (10% urethane: 1 g/kg/ip) to allow a catheterization of the vein of the penis. The electrocardiogram is recorded. At time T=0 the substance investigated is injected in the form of an aqueous solution, at a rate of 2.5 ml of solution per kg in 30 seconds. At time T=90 seconds, that is 1 minute after the end of the injection, aconitine is perfused at a rate of 20 μg per minute until the appearance of supra-ventricular systoles. The time of perfusion of the aconitine is noted.
The results are expressed by an ED50, which is the dose in mg/kg increasing by 50% the perfusion time of aconitine in comparison with the perfusion time of aconitine for the control animals.

Where [6] appears, read: calculated from I50, read-out: Ki.

The values below come from US4294841A, “Derivatives of 1-phenyl 3-(4-piperidyl) 1-propanone usable as drugs” (Pharmindustrie, priority 1978, dated 1981).

Where two headings read alike, the source gives them in different places.

Take `Clc1ccc(CCCC2CCNCC2)cc1Cl` [Example 9, 4-[3-(3,4-dichlorophenyl)1-propyl]piperidine]: the IC50 in data set [1] was determined as 1300 nM; in data set [2], 180 nM. Also, the median lethal dose (LD50) at 72 h in data set [3] amounted to 600 mg/kg.
For the compound `Clc1ccc(CCCC2CCNCC2)cc1` [Example 8, 4-[3-(4-Chlorophenyl)1-propyl]piperidine], the IC50 in data set [1] stood at 900 nM; in data set [2], 90 nM. The Ki in data set [4] (setting [6]) is 36000 nM. The compound further displayed an LD50 at 72 h in data set [3] of 235 mg/kg.
The like results for `COc1ccc(CCCC2CCNCC2)cc1` [Example 6, 4-[3-(4-Methoxyphenyl) 1-propyl]piperidine] were, in that order, 2200 nM, 20 nM, 19500 nM and 400 mg/kg.
`Oc1ccccc1CCCC1CCNCC1` [Example 20, 2-[3-(4-Piperidyl)propyl]phenol]: the Ki in data set [4] (setting [6]) was 29000 nM. In addition, the ED50 in data set [5] came out at 1.2 mg/kg.
As to `Nc1ccc(CCCC2CCNCC2)cc1` [Example 17, 4-[3-(4-Aminophenyl)propyl]piperidine], the Ki in data set [4] (setting [6]) is 36000 nM.
Regarding `COc1ccc(C(=O)CCC2CCNCC2)cc1` [Example 19, 1-(4-methoxyphenyl) 3-(4-piperidyl) 1-propanone], the Ki in data set [4] (setting [6]) is 6500 nM. Also, in data set [3], the LD50 at 72 h is 200 mg/kg.
`Fc1ccc(CCCC2CCNCC2)cc1` [Example 7, 4-[3-(4-Fluorophenyl)1-propyl]piperidine]: the IC50 came out at 3000 nM in data set [1] and 10 nM in data set [2]. The inhibition constant Ki in data set [4] (setting [6]) was 45000 nM. The same compound returned a median lethal dose (LD50) at 72 h in data set [3] of 225 mg/kg.
For the compound `C=C[C@H]1C[N@@]2CC[C@H]1C[C@@H]2[C@@H](O)c1ccnc2ccc(OC)cc12` [Quinidine, reference compound], the 50% effective dose (ED50) in data set [5] is 4 mg/kg.
Consider `COc1ccc(C(O)CCC2CCNCC2)cc1` (stereo not shown) [Example 22, 1-(4-methoxyphenyl) 3-(4-piperidyl) 1-propanol], for which the inhibitory constant (Ki) in data set [4] (setting [6]) is 32000 nM. Moreover, the LD50 at 72 h in data set [3] came out at 800 mg/kg.
As for `c1ccc(CCCC2CCNCC2)cc1` [Example 16, 4-[3-(phenyl)propyl]piperidine], the IC50 in data set [1] is 240 nM; in data set [2], 2 nM. For the same compound, the median effective dose (ED50) in data set [5] turned out to be 2.5 mg/kg. This compound had an LD50 at 72 h in data set [3] of 200 mg/kg.
On to `CN(C)CCCN1c2ccccc2CCc2ccccc21` [Imipramine, reference compound], for which the IC50 in data set [1] was found to be 500 nM; in data set [2] it was 120 nM. Further, the Ki entry in data set [4] (calculated from I50) was “inactive”.
Consider `Cc1ccc(CCCC2CCNCC2)cc1` [Example 10, 4-[3-(4-Methylphenyl)1-propyl]piperidine], for which the results for the IC50 in data set [1] and in data set [2] were 300 nM and 160 nM, respectively. Besides, the Ki in data set [4] (setting [6]) was 42000 nM. This compound also displayed a median lethal dose (LD50) at 72 h in data set [3] of 400 mg/kg.
